Assay [1] relates to RAW264.7. The assay is described as follows: Suppression of LPS-induced NO production in mouse RAW264.7 cells treated for 2 hrs and followed by challenged with […] for 24 hrs by griess reagent. Format: functional, cell-based.
For assay [2], the system named is LLC-PK1. The assay is described as follows: Renoprotective activity against cisplatin-induced cytotoxicity in pig LLC-PK1 cells assessed as recovery of cell viability at 25 to 125 uM treated for 2 hrs and followed by challenged with cisplatin for 24 hrs by MTT assay. The note with it: Sus scrofa. Format: functional, cell-based.
Assay [3] has as its system LLC-PK1. As to the kind of experiment: Renoprotective activity against cisplatin-induced cytotoxicity in pig LLC-PK1 cells assessed as recovery of cell viability treated for 2 hrs and followed by challenged with cisplatin for 24 hrs by MTT assay. Format: functional, cell-based. The settings on record: Sus scrofa.
For assay [4], the system named is LLC-PK1. The assay is described as follows: Renoprotective activity against cisplatin-induced cytotoxicity in pig LLC-PK1 cells assessed as recovery of cell viability at 125 uM treated for 2 hrs and followed by challenged with cisplatin for 24 hrs by MTT assay. Format: functional, cell-based. The settings on record: Sus scrofa.
Assay [5] deals with LLC-PK1. The assay is described as follows: Renoprotective activity against cisplatin-induced apoptosis in pig LLC-PK1 cells assessed as reduction in cisplatin-induced cleaved caspase-3 at 25 uM treated for 2 hrs and followed by challenged with cisplatin for 24 hrs by Western blot analysis. In kind it is functional, cell-based. The settings on record: Sus scrofa.
Assay [6] deals with LLC-PK1. As to the kind of experiment: Renoprotective activity against cisplatin-induced apoptosis in pig LLC-PK1 cells assessed as reduction in cisplatin-induced phosphorylated p38 at 25 uM treated for 2 hrs and followed by challenged with cisplatin for 24 hrs by Western blot analysis. In kind it is functional, cell-based. The note with it: Sus scrofa.
The test system of assay [7] is LLC-PK1. As to the kind of experiment: Renoprotective activity against cisplatin-induced apoptosis in pig LLC-PK1 cells assessed as reduction in cisplatin-induced p53 level at 25 uM treated for 2 hrs and followed by challenged with cisplatin for 24 hrs by Western blot analysis. Format: functional, cell-based. The settings on record: Sus scrofa.
The subject of assay [8] is LLC-PK1. The assay is described as follows: Renoprotective activity against cisplatin-induced apoptosis in pig LLC-PK1 cells assessed as reduction in cisplatin-induced phosphorylated JNK at 25 uM treated for 2 hrs and followed by challenged with cisplatin for 24 hrs by Western blot analysis. In kind it is functional, cell-based. The settings on record: Sus scrofa.
The subject of assay [9] is LLC-PK1. As to the kind of experiment: Renoprotective activity against cisplatin-induced apoptosis in pig LLC-PK1 cells assessed as reduction in cisplatin-induced dead and apoptotic cells at 25 uM treated for 2 hrs and followed by challenged with cisplatin for 24 hrs by annexin V/Tali image-based cytometry. In kind it is functional, cell-based. The settings on record: Sus scrofa.

Assay [10] deals with LLC-PK1. The assay is described as follows: Renoprotective activity against cisplatin-induced apoptosis in pig LLC-PK1 cells assessed as reduction in cisplatin-induced phosphorylated ERK at 25 uM treated for 2 hrs and followed by challenged with cisplatin for 24 hrs by Western blot analysis. The note with it: Sus scrofa. In kind it is functional, cell-based.
The subject of assay [11] is LLC-PK1. As to the kind of experiment: Renoprotective activity against cisplatin-induced cytotoxicity in pig LLC-PK1 cells assessed as recovery of cell viability at 25 uM treated for 2 hrs and followed by challenged with cisplatin for 24 hrs by MTT assay. Format: functional, cell-based. The settings on record: Sus scrofa.
Assay [12] concerns LLC-PK1. As to the kind of experiment: Reduction in cisplatin-induced MAPK phosphorylation in pig LLC-PK1 cells at 25 uM treated for 2 hrs and followed by challenged with cisplatin for 24 hrs by Western blot analysis. In kind it is cell-based. The settings on record: Sus scrofa.
Assay [13] has as its system LLC-PK1. The assay is described as follows: Renoprotective activity against cisplatin-induced cytotoxicity in pig LLC-PK1 cells assessed as recovery of cell viability at 2 to 25 uM treated for 2 hrs and followed by challenged with cisplatin for 24 hrs by MTT assay. In kind it is functional, cell-based. The note with it: Sus scrofa.

The source made the active and inactive calls. The calls are words filed in the database; no cut-off is given here.

For the molecule `COc1ccc(C(=O)/C=C/c2cc(OC)c(Br)c(OC)c2)cc1OC`, in [1], the inhibition entry is “Dose-dependent effect”. Also, the result in assay [2] was inactive. The Activity entry in assay [3] is “Dose-dependent effect”.
Take `COc1ccc(/C=C/C(=O)c2ccc(Br)cc2)cc1OC`: the inhibition entry in assay [1] was “Dose-dependent effect”. Besides, in assay [3], the Activity entry was “Dose-dependent effect”. Further, in [4], the outcome was Active.
Turning to `COc1cccc(C(=O)/C=C/c2ccc(Cl)cc2)c1`, the outcome in assay [5], in assay [6], in assay [7], in assay [8], in assay [9] and in assay [10] was Active. In [1], the inhibition result is “Dose-dependent effect”. For the same molecule, in assay [3], the Activity entry was “Dose-dependent effect”.
Take `COc1cccc(C(=O)/C=C/c2cc(OC)c(OC)cc2Br)c1`: the inhibition result in assay [1] is “Dose-dependent effect”. Moreover, the Activity entry in assay [3] is “Dose-dependent effect”.
Regarding `COc1cc(Br)c(/C=C/C(=O)c2ccc(Br)cc2)cc1OC`, the result in assay [5], in assay [6], in assay [7], in assay [8], in [11] and in [9] was Active. Moreover, the outcome in [10] and in [13] was Active. The inhibition result in assay [1] is “Dose-dependent effect”. In assay [3], the Activity result was “Dose-dependent effect”. The inhibition entry in assay [12] was “Active”.
Regarding `Cc1ccc(/C=C/C(=O)c2ccc(Cl)cc2)cc1`, the inhibition entry in [1] was “Dose-dependent effect”. The Activity entry in [3] is “Dose-dependent effect”. In addition, the outcome in assay [4] was Active.

(Values after ChEMBL document CHEMBL3399998, “Synthesis and biological evaluation of chalcone analogues as protective agents against cisplatin-induced cytotoxicity in kidney cells” (Bioorg Med Chem Lett, 2015).)
